Data reported in patent US8080577B2, “Diindolylmethane formulations for the treatment of leiomyomas” (Bioresponse, L.L.C., priority 2004, dated 2011).
Entries after “also recorded” stand apart in the source; their conditions may differ.

Key:
Assay type in all cases: in vivo, human
uterine leiomyomas = assay: Oral absorption-enhanced DIM in women with uterine leiomyomas, tumor volume by serial pelvic ultrasound; conditions: for Post-DIM Treatment Tumor Volume: oral absorption-enhanced DIM
Description: Expected results are clinical improvement in symptoms and reduction of leiomyoma size documented in serial sonograms. […] Women with uterine leiomyomas have been selected based on the findings of abnormal uterine sonograms showing measurable leiomyoma documented on more than one occasion. Three subjects were proceeding to provide a baseline 12-hour urine collection and began to take absorbable DIM 150 to 450 mg [37.5-112 mg actual DIM] twice daily for 3-6 months. Two women have completed participation in a preliminary study, completing 2 and 6 month treatment periods. Subject A was a multiparous person with regular menstrual periods, taking thyroid hormone replacement to correct primary hypothyroidism and using no other medications. Subject B was a person taking no medications with regular periods. After informed consent, a pretreatment ultrasound was obtained for each subject. Each subject provided a 12 or 24 hour urine specimen which was frozen. Subject A began taking 2 capsules twice daily of absorption-enhanced DIM (BioResponse, LLC, Boulder Colo.) providing DIM at […]. Subject B took 3 capsules twice daily of absorption-enhanced DIM (BioResponse, LLC, Boulder Colo.) providing DIM at […]. After 2 months of treatment, Subject A was re-evaluated by the same ultrasound technician using the same equipment and at the same phase of their menstrual cycle. A post treatment urine was also obtained, collected at the same point in the menstrual cycle as the baseline urine sample. Similarly, Subject B was re-evaluated after 6 months of treatment using absorption-enhanced DIM (BioResponse-DIM). They took a higher twice daily dose providing […]. Their re-evaluation included pelvic ultrasonography following a series of 3 pre-treatment pelvic ultrasound evaluations all performed with the same equipment. Like Subject A, Subject B provided a before and after DIM treatment urine sample. The pelvic ultrasound data were analysed using a mathematical formula to calculate the pre-treatment and post-treatment volume of individual leiomyoma based on the widest diameter and the diameter perpendicular to this measured in centimeters (cm). A calculation of individual tumor volume was performed, treating each tumor as an ovoid mass, using the formula: V=4/3π(H/2)^2(L/2), where V=volume in cubic centimeters (cm^3), H=tumor height in centimeters (cm), and L=tumor length in centimeters (cm). This method provided individual tumor volumes in cubic centimeters (cm^3).

[1] = test system: estrogen metabolites in urine; assay: GCMS assay of urinary estrogen metabolites before and after DIM treatment; conditions: after vs before DIM
Description: After informed consent, a pretreatment ultrasound was obtained for each subject. Each subject provided a 12 or 24 hour urine specimen which was frozen. Subject A began taking 2 capsules twice daily of absorption-enhanced DIM (BioResponse, LLC, Boulder Colo.) providing DIM at […]. Subject B took 3 capsules twice daily of absorption-enhanced DIM (BioResponse, LLC, Boulder Colo.) providing DIM at […]. After 2 months of treatment, Subject A was re-evaluated by the same ultrasound technician using the same equipment and at the same phase of their menstrual cycle. A post treatment urine was also obtained, collected at the same point in the menstrual cycle as the baseline urine sample. Similarly, Subject B was re-evaluated after 6 months of treatment using absorption-enhanced DIM (BioResponse-DIM). They took a higher twice daily dose providing […]. Their re-evaluation included pelvic ultrasonography following a series of 3 pre-treatment pelvic ultrasound evaluations all performed with the same equipment. Like Subject A, Subject B provided a before and after DIM treatment urine sample.
The urine samples were tested at the Bradlow/Sepkovic Laboratory, Hackensack University Medical Center, Hackensack, N.J. The technique utilized was an established gas chromatography-mass spectrometry (GCMS) assay for estradiol (E2), estrone (E1), 2-hydroxy estrone (2OH-E1), 4-hydroxy estrone (4OH-E1), 16-hydroxy estrone (16OH-E1), and estriol (E3) in urine (Michnovicz et al., 1997, J Natl Cancer Inst. 89(10):718-23). […] Laboratory analysis is expected to show an increase in 2-hydroxy estrone, and a decrease in 16-hydroxy estrone, as measured in pre-treatment as compared to post-treatment urine samples. […] Results of before and after DIM treatment are presented in Table 8, showing the metabolites of interest as a percent of the total estrogen metabolites measured and as ratios of the amounts of 2OH-E1 to 16OH-E1 (2OH-E1/16OH-E1) determined for each sample. […]

uterine leiomyoma = assay: Clinical case: oral absorption-enhanced DIM in a person with symptomatic uterine leiomyoma; conditions: after two months
Description: A person was symptomatic from uterine leiomyoma, experiencing painful menses with excessive bleeding, frequency of urination, and inability to exercise due to tiredness. […] A blood test indicated mild anemia. […] The patient initiated therapy with capsules of DIM, formulated for enhanced absorption as described in Example 1. A dose of 120 mg of DIM formulation, given three times per day, delivering 30 mg of actual DIM per dose, was used.

[2] = test system: estrogen metabolites in urine; assay: GCMS assay of urinary estrogen metabolites before and after DIM treatment
[3] = 30 mg actual DIM three times per day
[4] = Subject A, 200 mg/day DIM, taken for 2 months
[5] = Subject B, 300 mg/day DIM, taken for 6 months

SMILES: c1ccc2c(Cc3c[nH]c4ccccc34)c[nH]c2c1 [DIM, 3,3′-diindolylmethane]
- average percent reduction in tumor volume (uterine leiomyomas; Subject A, 2 month treatment): 33.5%
- Percent Decrease in Tumor Volume (uterine leiomyomas; Subject A, Tumor 1, oral DIM 200 mg/day, 2 months): 83.11%
- Post-DIM Treatment Tumor Volume (uterine leiomyomas; Subject A, Tumor 1, 200 mg/day DIM, 2 months): 3.783 cm^3
- Percent Decrease in Tumor Volume (uterine leiomyomas; Subject A, Tumor 2, oral DIM 200 mg/day, 2 months): 2.06%
- Post-DIM Treatment Tumor Volume (uterine leiomyomas; Subject A, Tumor 2, 200 mg/day DIM, 2 months): 114.4901 cm^3
- Percent Decrease in Tumor Volume (uterine leiomyomas; Subject A, Tumor 3, oral DIM 200 mg/day, 2 months): 15.32%
- Post-DIM Treatment Tumor Volume (uterine leiomyomas; Subject A, Tumor 3, 200 mg/day DIM, 2 months): 53.2 cm^3
- average reduction in tumor volume (uterine leiomyomas; Subject B, 6 month treatment): 78.6%
- Percent Decrease in Tumor Volume (uterine leiomyomas; Subject B, Tumor 1, oral DIM 300 mg/day, 6 months): 71.9605%
- Post-DIM Treatment Tumor Volume (uterine leiomyomas; Subject B, Tumor 1, 300 mg/day DIM, 6 months): 5.575 cm^3
- Percent Decrease in Tumor Volume (uterine leiomyomas; Subject B, Tumor 2, oral DIM 300 mg/day, 6 months): 47.75%
- Post-DIM Treatment Tumor Volume (uterine leiomyomas; Subject B, Tumor 2, 300 mg/day DIM, 6 months): 1.877 cm^3
- Percent Decrease in Tumor Volume (uterine leiomyomas; Subject B, Tumor 3, oral DIM 300 mg/day, 6 months): 38.51%
- Post-DIM Treatment Tumor Volume (uterine leiomyomas; Subject B, Tumor 3, 300 mg/day DIM, 6 months): 6.094 cm^3
- Percent Decrease in Tumor Volume (uterine leiomyomas; Subject B, Tumor 4, oral DIM 300 mg/day, 6 months): 53.06%
- Post-DIM Treatment Tumor Volume (uterine leiomyomas; Subject B, Tumor 4, 300 mg/day DIM, 6 months): 0.8849 cm^3
- Percent Decrease in Tumor Volume (uterine leiomyomas; Subject B, Tumor 5, oral DIM 300 mg/day, 6 months): 62.41%
- Post-DIM Treatment Tumor Volume (uterine leiomyomas; Subject B, Tumor 5, 300 mg/day DIM, 6 months): 0.7964 cm^3
- leiomyoma size by serial pelvic ultrasound (uterine leiomyomas; preliminary treatment of women with oral DIM): meaningful reduction of leiomyoma size; also recorded: consistent reduction of intra-uterine leiomyoma size
- side effects associated with reduction in leiomyoma volume (uterine leiomyomas; women treated with oral DIM, 2 and 6 months): not associated with amenorrhea, hypo-estrogenemia, hot flashes, or other reported side effects
- change in 16OH-E1 ([1]; Subject A): treatment related reduction
- change in 4OH-E1 ([1]; Subject B, treated at a higher dose): treatment related reduction
- change in 2OH-E1 and the 2OH-E1/16OH-E1 ratio ([1]; both Subjects): large treatment related increases
- repeat abdominal exam (uterine leiomyoma; [3]): no visible or palpable pelvic masses
- repeat pelvic exam (uterine leiomyoma; [3]): normal appearing uterine cervix and a palpable uterus of much reduced size
- myoma-related symptoms described by the patient (uterine leiomyoma; 120 mg DIM formulation (30 mg actual DIM) three times per day): normal menstrual flow with normal levels of discomfort and improved energy
- 2OH-E1/16OH-E1 ratio, After DIM [2, 4]: 1.7
- 2OH-Estrone (2OH-E1), percent of total estrogen metabolites measured, After DIM [2, 4]: 8.3%
- 4OH-Estrone (4OH-E1), percent of total estrogen metabolites measured, After DIM [2, 4]: 0.7%
- 16OH-Estrone (16OH-E1), percent of total estrogen metabolites measured, After DIM [2, 4]: 4.9%
- 2OH-E1/16OH-E1 ratio, After DIM [2, 5]: 9.5
- 2OH-Estrone (2OH-E1), percent of total estrogen metabolites measured, After DIM [2, 5]: 35%
- 4OH-Estrone (4OH-E1), percent of total estrogen metabolites measured, After DIM [2, 5]: 1.7%
